Source: patent publication US20210137934A1, “METHODS OF IDENTIFYING MYC-DRIVEN AND LIPOGENESIS-DEPENDENT NEOPLASMS AND METHODS OF TREATING THE SAME” (The Board of Trustees of the Leland Stanford Junior …, priority 2017, published 2021)
Entries after “also recorded” stand apart in the source; their conditions may differ.

Key:
T-ALL (4188) cells = assay: In vitro cell growth, 4188; format: cell-based, mouse; settings: 4188 T-ALL cells
Procedure: (§1) Small molecule inhibitors. The small molecule, TOFA (Sigma), diluted in dimethyl sulfoxide (DMSO) to the desired concentrations is added to cell culture medium to achieve inhibition of ACACA. TOFA is an allosteric inhibitor of ACACA, the enzyme which catalyzes the rate-limiting step of fatty acid synthesis. Various concentrations of TOFA are administered to cells in culture over time to assess dose-response suppression of proliferation. For in vivo treatment of mice, 25 mg/kg TOFA is administered daily by intraperitoneal injections (IP). The stock TOFA is diluted in DMSO to 10 mg/ml, such that the final injected volume is around 50 μl since the mice weigh about 20 g. Cell counting. A volume of cells is removed from culture medium and mixed with an equal volume of 0.4% Trypan blue stain. Then 10 μl hemocytometer for cell counting. Viable cell counts are used as a measure of cell proliferation.

HCC (EC4) cells = assay: In vitro cell growth, EC4; format: cell-based, mouse
Procedure: as §1

[1] = test system: human lymphoma B-cell line (P493-6); assay: In vitro cell proliferation by total live cell counts, P493-6; format: cell-based; settings: P493-6 cells, various concentrations
Procedure: (§2) Cell culture conditions. P493-6 cells are cultured in Gibco's RPM11640 media under normal culture conditions of 20% O2, 4% CO2, and 37° C. P493 cells are suspension cells, and they are kept at 0.2-1.8 million cells/ml density to avoid confluency. In order to turn off Myc, 1 μg/ml of tetracycline is applied to the media for 48 hours to completely suppress Myc. Mouse-derived renal carcinoma line E28 and human RCC 786-O cell line are cultured for in vitro experiments under normal culture conditions of 20% O2, 4% CO2, and 37° C. 786-O and E28 cells are maintained in Dulbecco's Modified Eagle Medium (DMEM), which is supplemented with 10% fetal bovine serum (FBS), 1% L-glutamine, 1% sodium pyruvate, 1% nonessential amino acids, and Antibiotic-Antimycotic. Trypsin-EDTA is used to passage E28 and 786-O cells. All cell culture reagents are purchased from Gibco® (Thermo Fisher Scientific Inc.).
as §1, with “g.” for “g. Cell counting. A volume of cells is removed from culture medium and mixed with an equal volume of 0.4% Trypan blue stain. Then 10 μl hemocytometer for cell counting. Viable cell counts are used as a measure of cell proliferation.”
(§3) Cell counting. A volume of cells is removed from culture medium and mixed with an equal volume of 0.4% Trypan blue stain. Then 10 μl hemocytometer for cell counting. Viable cell counts are used as a measure of cell proliferation.

RCC (E28) cells = assay: In vitro cell proliferation by total live cell counts, E28; format: cell-based, mouse; settings: for cell growth / proliferation (total live cell counts): various concentrations
Procedure: as §2
as §1, with “g.” for “g. Cell counting. A volume of cells is removed from culture medium and mixed with an equal volume of 0.4% Trypan blue stain. Then 10 μl hemocytometer for cell counting. Viable cell counts are used as a measure of cell proliferation.”
as §3

[2] = test system: transgenic MYC-induced RCC; assay: Transgenic MYC-induced RCC mouse model, tumor growth (kidney weight and size, histology); format: in vivo; settings: 25 mg/kg daily IP
Procedure: as §1, with “g.” for “g. Cell counting. A volume of cells is removed from culture medium and mixed with an equal volume of 0.4% Trypan blue stain. Then 10 μl hemocytometer for cell counting. Viable cell counts are used as a measure of cell proliferation.”

[3] = test system: human RCC tumor derived cell line, 786-0; assay: Human RCC 786-O cell line treated in vitro; format: cell-based; settings: 786-0 cell line treated in vitro
Procedure: as §2
(§4) Small molecule inhibitors. The small molecule, TOFA (Sigma), diluted in dimethyl sulfoxide (DMSO) to the desired concentrations is added to cell culture medium to achieve inhibition of ACACA. TOFA is an allosteric inhibitor of ACACA, the enzyme which catalyzes the rate-limiting step of fatty acid synthesis. Various concentrations of TOFA are administered to cells in culture over time to assess dose-response suppression of proliferation. […]

[4] = test system: human RCC 786-O xenograft; assay: Human RCC 786-O xenograft in NSG mice; format: in vivo, mouse; settings: 25 mg/kg daily IP
Procedure: as §2, §4

PGs and PIs [5] = assay: DESI-MSI lipid profile in transgenic MYC-induced RCC; format: in vivo, mouse
Procedure: as §1, with “g.” for “g. Cell counting. A volume of cells is removed from culture medium and mixed with an equal volume of 0.4% Trypan blue stain. Then 10 μl hemocytometer for cell counting. Viable cell counts are used as a measure of cell proliferation.”
(§5) Desorption Electrospray Ionization Mass Spectrometry Imaging (DESI-MSI). DESI-MSI is used for generating two-dimensional chemical maps of various tissues sections in order to assess the lipid profile of an organ. Tissue sections of 16 μm thick are imaged by this method using a lab-built DESI-MSI source coupled to an LTQ-Orbitrap XL mass spectrometer (Thermo Fisher Scientific, MA), and the mass spectra are acquired in negative ion mode using the Orbitrap as the mass analyzer at 60,000 resolving power. […] All tissues are histopathologically evaluated after imaging using standard hematoxylin and eosin (H&E) staining, to ensure a correct interpretation of lipid signals. […]

PGs and PIs [6] = assay: DESI-MSI lipid profile in human RCC xenograft; format: in vivo, mouse
Procedure: as §1, with “g.” for “g. Cell counting. A volume of cells is removed from culture medium and mixed with an equal volume of 0.4% Trypan blue stain. Then 10 μl hemocytometer for cell counting. Viable cell counts are used as a measure of cell proliferation.”
as §5

Compound | cell growth (T-ALL (4188) cells) | cell growth (HCC (EC4) cells) | cell growth / proliferation (total live cell counts) [1] | cell growth / proliferation (total live cell counts) ([1]; listed as Cerulenin) | cell growth / proliferation (total live cell counts) (RCC (E28) cells) | tumor progression / regression, treatment after tumor onset ([2]; treatment at week 2 (15 day MYC on tumor), kidney weight and size, histology) | tumor growth / tumorigenesis, treatment before tumor onset ([2]; treatment from week 0 (day 0 MYC on)) | tumor cell response in vitro [3] | xenograft tumor growth [4] | PGs and PIs by DESI-MSI during tumor initiation and regression (PGs and PIs [5]) | PGs and PIs by DESI-MSI (PGs and PIs [6]) | rescue of growth inhibition by addition of oleate (RCC (E28) cells; oleate added)
C/C=C/C/C=C/CCC(=O)[C@H]1O[C@H]1C(N)=O [cerulenin, Cerulenin] | growth inhibited in vitro in a dose-dependent manner | growth inhibited in vitro in a dose-dependent manner | growth inhibited in vitro in a dose-dependent manner | decreased in a dose-dependent manner | growth inhibited in vitro in a dose-dependent manner | – | – | – | – | – | – | –
CCCCCCCCCCCCCCOc1ccc(C(=O)O)o1 [TOFA, 5-(tetradecyloxy)-2-furancarboxylic acid] | – | – | growth inhibited in vitro in a dose-dependent manner; also recorded: decreased in a dose-dependent manner | – | growth inhibited in vitro in a dose-dependent manner; also recorded: similar | regressed; also recorded: induced tumor regression; also recorded: significantly reduces kidney tumor progression | blocked; also recorded: prevented tumor growth; also recorded: completely prevents tumorigenesis | exhibited tumor regression | regresses; also recorded: exhibited tumor regression | suppressed; also recorded: block PGs and PIs | block PGs and PIs | partially rescuable; also recorded: partially rescued
